Where “and” joins values, the source holds several entries; their conditions need not be identical. Equal entries are not always repeated.
What was measured:
[1] = test system: human neuroblastoma cells (SH-SY5Y); test: Viability of SH-SY5Y cells after auranofin (AuF) challenge, methylene blue staining; assay type: cell-based; conditions: SH-SY5Y pre-treated with 5 µM AuF 30 min, washed, compound added, viability 24 h later
Description: Viability of cells pre-treated with 5 µM AuF for 30 min, washed and later exposed to increasing concentrations of SD-444, was determined 24 h later.
A) The anti-apoptotic activity of SD-444 was tested on human neuronal cells SH-SY5Y. The cells were challenged by auranofin (AuF) that induces cellular stress by selectively blocking the thioredoxin reductase activity.
SH-SY5Y cells were plated on 96-well plates and treated with AuF in different concentrations for 30 min. Then the cells were washed with PBS and treated as indicated. Twenty-four hours later, the cells were fixed with glutaraldehyde in final concentration of 0.5% for 10 min. Cells were washed 3 times with DDW dried overnight, and washed once with borate buffer (0.1 M, pH 8.5). The fixed cells were stained with 200 µl of 1% methylene blue dissolved in borate buffer for 1 h. After extensive washing and drying, the color was extracted with 200 µl of 0.1 M HCl for 1 h at 37° C. and absorbance was read in spectrophotometer at 630 nm.

[2] = Body weight monitoring in rotenone-treated rats; assay type: in vivo, Sprague Dawley rats; conditions: for Weight: individual rat, listed as SDA
Description: (§1) 1-SD (Rotenone + SD); 2 - SDA (Rotenone + SDA); 3 - Control (Rotenone); 4 -Naive. The experimental groups were comprised of 6 animals for treated groups (1-3) and 2 animals in naive group (4). Rotenone was administrated 3.0 mg/kg intraperitoneally (IP) once a day in the morning (days 1-9). SD 33 mg/kg and SDA 33 mg/kg were administrated intraperitoneally once a day in the afternoon (days 1-9).
Animals weight was measured before initiation of treatment (day 0), on days 4,7, 9 during the experiment and on termination day 11. On day 11, animals were sacrificed and brains were harvested for further histopathological analysis.
(§2) IP administration: Rotenone was administrated to groups 1-3. Rotenone was injected intraperitoneally at a dose 3.0 mg/kg once a day in the morning (days 1-9). SD and SDA was administrated both at a dose of 33 mg/kg and were injected intraperitoneally once a day in the afternoon (days 1-9). Group number 4 was untreated, and remained as a naive group.

[3] = test system: Rotenone -induced model of Parkinson's disease (PD) in rats; test: Rotarod behavior assay, rotenone model; assay type: in vivo, Sprague Dawley rats; conditions: for R.R (rotarod): individual rat, listed as SDA
Description: as §1
(§3) Rearing behavior, rotarod and beam walk tests were performed before initiation of treatment (day 0) as well as on days 4, 8 and 10 of the experiment.
as §2
The test was used to evaluate motor coordination and balance. Apparatus was set to accelerate from 4 to 40 rpm in 300 s, and animals from same cage are placed in separate lanes on rod initially rotating at 4 rpm.

p38MAPK phosphorylation = test: AuF-induced phosphorylation of p38MAPK in SH-SY5Y cells, western blot; assay type: cell-based, human; conditions: summary statement
Description: Cells were treated with 10 µM AuF with or without SD-444. Phosphorylation was determined by western blot analysis. The amount of each band was quantitated by densitometry and plotted with a linear regression program normalized with β catenin (b-cat).
(§4) In the assay, twenty to thirty micrograms of protein samples were loaded on 10-12% SDS-PAGE gels. The proteins were then transferred electrophoretically to nitrocellulose (Whatman, Germany). The blots were blocked by incubation for 1 h at RT in TBS-T (25 mM Tris-HCl pH 7.4, 0.9% NaCl and 0.02% Tween-20) with 4% Difco skim milk (BD, USA), and incubated over-night at 4° C. with the primary antibody: p-p38^MAPK (Thr180/Tyr182), rabbit mAb; p38, rabbit Ab.

JNK phosphorylation = test: AuF-induced phosphorylation of JNK in SH-SY5Y cells, western blot; assay type: cell-based, human
Description: SH-SY5Y cells were treated with 10 µM AuF with or without SD-444. Phosphorylation was determined by western blot analysis. The amount of each band was quantitated by densitometry and plotted with a linear regression program normalized to total JNK.
as §4
as §4, with “1h” for “1 h”, “p-JNK^MAPK, and β-catenin.” for “p-p38^MAPK (Thr180/Tyr182), rabbit mAb; p38, rabbit Ab.”

[4] = test system: Rotenone -induced model of Parkinson's disease (PD) in rats; test: Rat beam walk test, rotenone model; assay type: in vivo, Sprague Dawley rats; conditions: for beam end time: individual rat, listed as SDA
Description: as §1, §3, §2
Animals were gently placed on 1 m long narrow aluminum beam facing one of the ends and allowed to walk to the end of the beam.

ERK1/2 phosphorylation = test: AuF-induced phosphorylation of ERK1/2 in PC12 cells, western blot; assay type: cell-based; conditions: 10 µM AuF, normalized to total ERK2, read-out: EC50, lowering of AuF induced activation of ERK1/2
Description: Cells were treated with 10 µM AuF with or without SDA-341. Phosphorylation was determined by western blot analysis (FIG. 6A). The amount of each band was quantitated by densitometry (FIG. 6B) and plotted with a linear regression program normalized to total ERK2 (FIG. 6C).
The ability of SDA-341 to lower AuF induced activation of ERK1/2 in PC12 cells with the corresponding anti ERK1/2 and ERK2 antibodies was also tested, as shown in FIG. 6. Calculated EC50=80µM.

[5] = average n=6, day 0 (before treatment)
[6] = day 0 (before treatment), rotenone 3 mg/kg + compound 33 mg/kg IP
[7] = rats, rotenone 3.0 mg/kg IP + compound 33 mg/kg IP, days 1-9

Compound: CC(=O)NC(CS)C(=O)NC(Cc1cccc(O)c1O)C(N)=O (stereo not drawn) [SDA-341, Acetyle-Cys-2,3 dihydroxyphenylalanine-amide]
- neuronal cell-viability after AuF [1]: increase viability
- Weight, group average [2, 5]: 304.33 gr
- Weight, group average ([2]; average n=6, day 4): 294.17 gr
- Weight, group average ([2]; average n=6, day 7): 284.33 gr
- Weight, group average ([2]; average n=6, day 9): 275.50 gr
- Weight, group average ([2]; average n=6, day 11): 271.33 gr
- Weight [2, 6]: 292 gr and 307 gr (2×) and 305 gr and 315 gr and 300 gr
- Weight ([2]; day 4, rotenone 3 mg/kg + compound 33 mg/kg IP): 284 gr and 293 gr and 299 gr (2×) and 294 gr and 296 gr
- Weight ([2]; day 7, rotenone 3 mg/kg + compound 33 mg/kg IP): 274 gr and 283 gr (2×) and 287 gr and 288 gr and 291 gr
- Weight ([2]; day 9, rotenone 3 mg/kg + compound 33 mg/kg IP): 275 gr and 272 gr and 267 gr and 274 gr and 281 gr and 284 gr
- Weight ([2]; day 11, rotenone 3 mg/kg + compound 33 mg/kg IP): 272 gr and 261 gr and 269 gr and 266 gr and 283 gr and 277 gr
- R.R (rotarod), group average [3, 5]: 285.17 s
- R.R (rotarod), group average ([3]; average n=6, day 4): 286.33 s
- R.R (rotarod), group average ([3]; average n=6, day 8): 266.33 s
- R.R (rotarod), group average ([3]; average n=6, day 10): 227.00 s
- R.R (rotarod) [3, 6]: 278 sec and 300 sec (2×) and 269 sec and 290 sec
- R.R (rotarod) ([3]; day 4): 298 sec and 274 sec and 263 sec and 300 sec (2×) and 283 sec
- R.R (rotarod) ([3]; day 8): 281 s and 249 s and 234 s and 277 s and 268 s and 289 s
- R.R (rotarod) ([3]; day 10): 270 s and 195 s and 123 s and 260 s and 243 s and 271 s
- rotarod test, motor dysregulation mediated by rotenone [3, 7]: significantly reversed
- p38 phosphorylation (AuF-triggered) (p38MAPK phosphorylation): inhibit
- EC50 (JNK phosphorylation; 10 µM AuF, western blot densitometry, read-out: EC50 in reduction of JNK activation): 100 µM
- JNK phosphorylation (AuF-triggered) (JNK phosphorylation; summary statement): inhibit
- beam end time, group average [4, 5]: 9.50 s
- beam end time, group average ([4]; average n=6, day 4): 17.50 s
- beam end time, group average ([4]; average n=6, day 8): 25.67 s
- beam end time, group average ([4]; average n=6, day 10): 20.33 s
- beam end time [4, 6]: 7 s and 3 s and 10 s and 8 s and 12 s and 17 s
- beam end time ([4]; day 4): 12 s and 32 s and 14 s and 21 s and 10 s and 16 s
- beam end time ([4]; day 8): 16 s and 23 s and 52 s and 18 s and 19 s and 26 s
- beam end time ([4]; day 10): 22 s and 17 s and 34 s and 10 s and 21 s and 18 s
- Walk-beam test, reversal of rotenone induced imbalance [4, 7]: very effective
- EC50 (ERK1/2 phosphorylation): 80 µM
